Patent US9695155B2, “Herbicidal substituted pyrimidinyloxy benzene compounds” (E. I. DU PONT DE NEMOURS AND COMPANY, priority 2013, dated 2017)

Experiments:
Experiment in all cases: Test E postemergence
arrowleaf sida = type: in vivo, Sida rhombifolia
Excerpt: (§1) Seeds of plant species selected from corn (Zea mays), soybean (Glycine max), velvetleaf (Abutilon theophrasti), lambsquarters (Chenopodium album), wild poinsettia (Euphorbia heterophylla), palmer pigweed (Amaranthus palmeri), waterhemp (common waterhemp, Amaranthus rudis), surinam grass (Brachiaria decumbens), large (Lg) crabgrass (Digitaria sanguinalis), Brazilian crabgrass (Digitaria horizontalis), fall panicum (Panicum dichotomiflorum), giant foxtail (Setaria faberii), green foxtail (Setaria viridis), goosegrass (Eleusine indica), johnsongrass (Sorghum halepense), ragweed (common ragweed, Ambrosia elatior), barnyardgrass (Echinochloa crus-galli), sandbur (southern sandbur, Cenchrus echinatus), arrowleaf sida (Sida rhombifolia), Italian ryegrass (Lolium multiflorum), dayflower (Virginia (VA) dayflower, Commelina virginica), field bindweed (Convolvulus arvensis), morningglory (Ipomoea coccinea), nightshade (eastern black nightshade, Solanum ptycanthum), kochia (Kochia scoparia), yellow nutsedge (Cyperus esculentus), cocklebur (common cocklebur, Xanthium strumarium), smartweed (ladysthumb smartweed, and hairy beggarticks (Bidens pilosa), were planted into a silt loam soil and treated preemergence with test chemicals formulated in a non-phytotoxic solvent mixture which included a surfactant.
(§2) At the same time, plants from these crop and weed species and also horseweed (Canada horseweed, Conyza canadensis), waterhemp_RES1, (ALS & Triazine resistant common waterhemp, Amaranthus rudis), and waterhemp_RES2, (ALS & HPPD resistant common waterhemp, Amaranthus rudis) were planted in pots containing Redi-Earth® planting medium (Scotts Company, 14111 Scottslawn Road, Marysville, Ohio 43041) comprising spaghnum peat moss, vermiculite, wetting agent and starter nutrients were treated with postemergence applications of test chemicals formulated in the same manner. Plants ranged in height from 2 to 18 cm for postemergence treatments (1- to 4-leaf stage). Treated plants and controls were maintained in a greenhouse for 14 to 21 days, after which time all species were compared to controls and visually evaluated. Plant response ratings, summarized in Table E, are based on a scale of 0 to 100 where 0 is no effect and 100 is complete control. A dash (-) response means no test result.

dayflower = type: in vivo, Commelina virginica
Excerpt: as §1, §2

Brazilian crabgrass = type: in vivo, Digitaria horizontalis
Excerpt: as §1, §2

[1] = Postemergence, 31 g ai/ha, scale 0 to 100
[2] = Postemergence, 62 g ai/ha, scale 0 to 100
[3] = Postemergence, 125 g ai/ha, scale 0 to 100
[4] = postemergence, 8 g ai/ha, scale 0 to 100, 0 no effect, 100 complete control
[5] = postemergence, 16 g ai/ha, scale 0 to 100, 0 no effect, 100 complete control
[6] = Postemergence, 250 g ai/ha, scale 0 to 100

Row | SMILES | Plant response rating, Arrowleaf Sida (arrowleaf sida; [1]) | Plant response rating, Arrowleaf Sida (arrowleaf sida; [2]) | Plant response rating, Arrowleaf Sida (arrowleaf sida; [3]) | Plant response rating, Arrowleaf Sida (arrowleaf sida; [5]) | Plant response rating, Dayflower, VA (dayflower; [1]) | Plant response rating, Dayflower, VA (dayflower; [2]) | Plant response rating, Dayflower, VA (dayflower; [3]) | Plant response rating, Dayflower, VA (dayflower; [5]) | Plant response rating, Crabgrass, Brazil (Brazilian crabgrass; [1]) | Plant response rating, Crabgrass, Brazil (Brazilian crabgrass; [2]) | Plant response rating, Crabgrass, Brazil (Brazilian crabgrass; [3]) | Plant response rating, Crabgrass, Brazil (Brazilian crabgrass; [5]) | other results
1 | Clc1cnc(Oc2cccc(Br)c2-n2cc(Br)cn2)nc1 [Compound 65] | 60 | 80 | 80 | 50 | 10 | 10 | 20 | 5 | 10 | 10 | 15 | 0 | Plant response rating, Arrowleaf Sida (arrowleaf sida; [4]): 55; Plant response rating, Dayflower, VA (dayflower; [4]): 5; Plant response rating, Crabgrass, Brazil (Brazilian crabgrass; [4]): 0
2 | Fc1cnc(Oc2ccccc2-n2cc(Br)cn2)nc1 [Compound 10, 2-[2-(4-bromo-1H-pyrazol-1-yl)phenoxy]-5-fluoropyrimidine] |  |  |  |  |  |  |  |  |  |  |  |  | pest or weed control at 31 g/ha (arrowleaf sida; Sida rhombifolia, post-emergence, Postemergence, 31 g ai/ha, scale 0 to 100, read-out: Plant response rating, Arrowleaf Sida): 50%; pest or weed control at 62 g/ha (arrowleaf sida; Sida rhombifolia, post-emergence, Postemergence, 62 g ai/ha, scale 0 to 100, read-out: Plant response rating, Arrowleaf Sida): 70%; pest or weed control at 125 g/ha (arrowleaf sida; Sida rhombifolia, post-emergence, Postemergence, 125 g ai/ha, scale 0 to 100, read-out: Plant response rating, Arrowleaf Sida): 80%; pest or weed control at 250 g/ha (arrowleaf sida; Sida rhombifolia, post-emergence, Postemergence, 250 g ai/ha, scale 0 to 100, read-out: Plant response rating, Arrowleaf Sida): 85%; pest or weed control at 16 g/ha (arrowleaf sida; Sida rhombifolia, post-emergence, postemergence, 16 g ai/ha, scale 0 to 100, 0 no effect, 100 complete control, read-out: Plant response rating, Arrowleaf Sida): 40%; pest or weed control at 31 g/ha (dayflower; Commelina virginica, post-emergence, Postemergence, 31 g ai/ha, scale 0 to 100, read-out: Plant response rating, Dayflower, VA): 10%; pest or weed control at 62 g/ha (dayflower; Commelina virginica, post-emergence, Postemergence, 62 g ai/ha, scale 0 to 100, read-out: Plant response rating, Dayflower, VA): 40%; pest or weed control at 125 g/ha (dayflower; Commelina virginica, post-emergence, Postemergence, 125 g ai/ha, scale 0 to 100, read-out: Plant response rating, Dayflower, VA): 50%; pest or weed control at 250 g/ha (dayflower; Commelina virginica, post-emergence, Postemergence, 250 g ai/ha, scale 0 to 100, read-out: Plant response rating, Dayflower, VA): 75%; pest or weed control at 16 g/ha (dayflower; Commelina virginica, post-emergence, postemergence, 16 g ai/ha, scale 0 to 100, 0 no effect, 100 complete control, read-out: Plant response rating, Dayflower, VA): 5%; pest or weed control at 31 g/ha (Brazilian crabgrass; Digitaria horizontalis, post-emergence, Postemergence, 31 g ai/ha, scale 0 to 100, read-out: Plant response rating, Crabgrass, Brazil): 0%; pest or weed control at 62 g/ha (Brazilian crabgrass; Digitaria horizontalis, post-emergence, Postemergence, 62 g ai/ha, scale 0 to 100, read-out: Plant response rating, Crabgrass, Brazil): 0%; pest or weed control at 125 g/ha (Brazilian crabgrass; Digitaria horizontalis, post-emergence, Postemergence, 125 g ai/ha, scale 0 to 100, read-out: Plant response rating, Crabgrass, Brazil): 0%; pest or weed control at 250 g/ha (Brazilian crabgrass; Digitaria horizontalis, post-emergence, Postemergence, 250 g ai/ha, scale 0 to 100, read-out: Plant response rating, Crabgrass, Brazil): 5%; pest or weed control at 16 g/ha (Brazilian crabgrass; Digitaria horizontalis, post-emergence, postemergence, 16 g ai/ha, scale 0 to 100, 0 no effect, 100 complete control, read-out: Plant response rating, Crabgrass, Brazil): 0%
3 | FC(F)(F)c1cnn(-c2ccccc2Oc2ncc(Cl)cn2)c1 [Compound 16] | 70 | 75 | 80 | 50 | 10 | 15 | 30 | 0 | 0 | 10 | 30 | 0 | Plant response rating, Arrowleaf Sida (arrowleaf sida; [6]): 90; Plant response rating, Dayflower, VA (dayflower; [6]): 40; Plant response rating, Crabgrass, Brazil (Brazilian crabgrass; [6]): 40
